Experimental data from patent publication US20130072523A1, “ANALOGUES FOR THE TREATMENT OR PREVENTION OF FLAVIVIRUS INFECTIONS” (VERTEX PHARMACEUTICALS INCORPORATED, priority 2009, published 2013).

What was measured:
[1] = tested on: sub-genomic HCV replicon of genotype 1a; experiment: Activity determination using the ELISA and the sub-genomic replicon 1a cell line (NS5A protein level, W11.8 cells); assay type: cell-based; details: Hepatitis C virus, W11.8, 96 h, drug treatment for four days
Description: Activity Determination Using the ELISA and the Sub-Genomic Replicon 1a Cell Line
The cell line W11.8 containing the sub-genomic HCV replicon of genotype 1a is used to determine the potency of the drugs. The RNA replication in presence of different drug concentrations is indirectly measured in this cell line by the level of NS5A protein content upon drug treatment for four days. It is shown that the level of the NS5A protein correlates well with the level of HCV RNA in the replicon cell line. Cells are split twice a week in order to keep the confluence state below 85% of the culture flask surface area. The culture media used for cell passaging consists of DMEM-10% foetal bovine serum with 100 UI/mL penicillin, 100 μg/mL streptomycin, 2 mM glutamine, 1 mM sodium pyruvate, non-essential amino acids (1×) and 600 μg/mL of G418 final concentrations. Monolayer of the W11.8 cells is trypsinized and cells are counted. Cells are diluted at 50,000 cells/mL with complete DMEM without G418, then approximately 5,000 viable cells (100 μL) are plated per well in a white opaque 96-well microtiter plate. After an incubation period of 2-4 hours at 37° C. in a 5% CO2 incubator, compounds are added at various concentrations. Drugs are resuspended in DMSO at a stock concentration of 10 mM. Then, drugs are serially diluted at twice the final concentration in the same medium. One volume (100 μL) of each drug dilution is then added to each well that contains cells.
A control compound is used as an internal standard for each plate assay. Sixteen wells are used as control (0% inhibition) without drug. […] Values from 100% inhibited wells were averaged and used as the background value. Cells are further incubated for four days at 37° C. in a 5% CO2 incubator. Following the incubation time of four days, the media is removed and wells are washed once with 150 μL of PBS at room temperature for five minutes. Cells are then fixed for five minutes using 150 μL per well of cold (−20° C.) fixative solution (50% methanol/50% acetone mix). Cells are then washed twice with 150 μL of PBS (phosphate buffered saline) per well, following the addition of 150 μL of blocking solution, cells are incubated for one hour at 37° C. to block non-specific sites. The blocking solution is removed and cells are washed twice with 150 μL of PBS per well and once with 150 μL of PBSTS solution (PBS/0.1% Triton X-100/0.02% SDS) per well. Then, 50 μL of mouse monoclonal anti-NS5A antibody (Santa Cruz, Cat. No. sc-52417) is added in each well, diluted 1/1,000 in the blocking solution and incubated at 4° C. overnight. Next day, media is removed and plates are washed five times with 150 μL of PBS per well with five-minute incubations at room temperature. Then 50 μL per well of peroxidase-conjugated donkey anti-mouse antibody (Jackson Immunoresearch, Cat. No. 715-036-150) diluted 1/10,000 in the blocking solution is added and incubated at room temperature for three hours on a shaker (500 rpm). Plates are washed four times with 150 μL of PBSTS solution per well and once with 150 μL of PBS. Then, substrate solution (100 μl, SuperSignal ELISA Pico Chemiluminescent Substrate, Fisher Cat. No. 37069) is added in each well and plates are incubated 60 minutes at room temperature prior to reading the luminescence (relative light units) on the Analyst HT plate reader. The percentage of inhibition at each drug concentration tested (in duplicate) is calculated. […]

HCV 1b genotype = experiment: Cell-based luciferase reporter HCV (Ib) RNA replication assay (Huh-ET replicon cells); details: Hepatitis C virus, 96 h; HCV 1b genotype replicon, 4 days incubation, luciferase readout
Description: Cell-Based Luciferase Reporter HCV (Ib) RNA Replication Assay Cell Culture
Replicon cell lines Huh-5.2 are derived from the Huh-7 hepatocarcinoma cell line are maintained in culture as generally described in Krieger, N; Lohmann, V; Bartenschlager, R. Enhancement of hepatitis C virus RNA replication by cell culture-adaptive mutations. J. Virol. 2001, 75, 4614-4624. The Huh-5.2 cells contain the highly cell culture-adapted replicon I389 Luc-ubi-neo/NS3-375.1 construct that carries, in addition to the neomycin gene, an integrated copy to the firefly luciferase gene (Krieger, N; Lohmann, V; Bartenschlager, R. Enhancement of hepatitis C virus RNA replication by cell culture-adaptive mutations. J. Virol. 2001, 75, 4614-4624). This cell line allows measurement of HCV RNA replication and translation by measuring luciferase activity. It has been previously shown that the luciferase activity tightly follows the replicon RNA level in these cells (Krieger, N; Lohmann, V; Bartenschlager, R. Enhancement of hepatitis C virus RNA replication by cell culture-adaptive mutations. J. Virol. 2001, 75, 4614-4624). The Huh-ET cell line has the same features as those mentioned for Huh-5.2 cell line, except that ET cells are more robust and contain an adaptative mutation in the HCV NS4B gene instead of NS5A. Both cell lines are maintained in cultures at a sub-confluent level (<85%) as the level of replicon RNA is highest in actively proliferating cells. The culture media used for cell passaging consist of DMEM (Gibco BRL Laboratories, Mississauga, ON, Canada) supplemented with 10% foetal bovine serum with 1% penicilin/streptomycin, 1% glutamine, 1% sodium pyruvate, 1% non-essential amino acids, and 180 μg/ml of G418 final concentration. Cells are incubated at 37° C., in an atmosphere of 5% CO2 and passaged twice a week to maintain sub-confluence.
Approximately 3000 viable Huh-ET cells (100 μl) are plated per well in a white opaque 96-well microtiter plate. The cell culture media used for the assay is the same as described above except that it contains no G418 and no phenol red. After an incubation period of 3-4 hours at 37° C. in a 5% CO2 incubator, compounds (100 μl) are added at various concentrations. Cells are then further incubated for 4 days at 37° C. in a 5% CO2 incubator. Thereafter, the culture media is removed and cells are lysed by the addition of 95 μL of the luciferase buffer (luciferin substrate in buffered detergent). Cell lysates are incubated at room temperature and protected from direct light for at least 10 minutes. Plates are read for luciferase counts using a luminometer (Wallac MicroBeta Trilux, Perkin Elmer™, MA, USA).
The 50% inhibitory concentrations (IC50s) for inhibitory effect are determined from dose response curves using eleven concentrations per compound in duplicate. Curves are fitted to data points using nonlinear regression analysis, and IC50s are interpolated from the resulting curve using GraphPad Prism software, version 2.0 (GraphPad Software Inc., San Diego, Calif., USA).
EC50 ranges are presented in micromolar as follows: μM+++<=0.005<++<=5.0<+.

SMILES | IC50 [1] [nM] | IC50 (HCV 1b genotype) [nM]
COC(=O)N[C@H](C(=O)N1C[C@@H](C)C[C@H]1c1ncc(-c2ccc(-c3ccc(-c4cnc([C@@H]5C[C@H](C)CN5C(=O)[C@@H](NC(=O)OC)C(C)C)[nH]4)cc3)cc2)[nH]1)C(C)C [Compound 1] | 0.017 | ≤ 5
COC(=O)N[C@H](C(=O)N1C[C@@H](C)C[C@H]1c1ncc(C#Cc2ccc(C#Cc3cnc([C@@H]4C[C@H](C)CN4C(=O)[C@@H](NC(=O)OC)C(C)C)[nH]3)cc2)[nH]1)C(C)C [Compound 4] | 0.055 | ≤ 5
COC(=O)N[C@H](C(=O)N1CCC[C@H]1c1ncc(-c2ccc(-c3ccc(-c4cnc([C@@H]5CCCN5C(=O)[C@@H](NC(=O)OC)C(C)C)[nH]4)cc3)cc2)[nH]1)C(C)C | 0.05 | –
COC(=O)N[C@H](C(=O)N1CCC[C@H]1c1ncc(C#Cc2ccc(C#Cc3cnc([C@@H]4CCCN4C(=O)[C@@H](NC(=O)OC)C(C)C)[nH]3)cc2)[nH]1)C(C)C | 4.8 | –
COC(=O)N[C@H](C(=O)N1[C@@H](C)CC[C@H]1c1ncc(C#Cc2ccc(C#Cc3cnc([C@@H]4CC[C@H](C)N4C(=O)[C@@H](NC(=O)OC)C(C)C)[nH]3)cc2)[nH]1)C(C)C [drawing 272] | 0.24 | –
